{"source": "patent US11319551B2", "about": "“Methods and compositions for PPO herbicide tolerance in plants” (Monsanto Technology LLC, priority 2015, dated 2022)", "key": {"corn PPO": {"target": "corn PPO", "test": "PPO enzyme assay, plant plastid extract", "type": "biochemical, Zea mays", "details": "3 μM protogen, 30° C., read-out: S-3100 IC50", "description": "(§1) Plant plastid extract was produced used etioplasts and chloroplasts that were prepared from etiolated cotyledons (soybean, Glycine max), etiolated leaves/coleoptiles (corn, Zea mays) and unfolded apical leaves (A. tuberculatus) generally by the procedure described by Grossmann (2010). Soybean (A3555) and corn (LH244) seeds were placed between two sheets of moist germination paper (Anchor Paper Company, Saint Paul, Minn.) in a beaker of water in continuous darkness for eight to ten days. A. tuberculatus plants were grown for 30 days in the greenhouse. Tissue was collected, placed between moist sheets of paper towels and ground to fine powder with a mortar and pestle in liquid nitrogen. Homogenization buffer (50 mM Tris-HCl, pH 7.4, 500 mM sucrose, 1 mM EDTA, 1 mM magnesium chloride, and 2 g/liter bovine serum albumin) was added to the frozen powder at 4:1 (ml homogenization buffer to g fresh weight tissue), mixed vigorously and filtered through four layers of pre-moistened Miracloth. The filtrate was centrifuged at 9299 g for five minutes. The pellet was resuspended in homogenization buffer and centrifuged at 150 g for two minutes. The supernatant solution was centrifuged at 4000 g for fifteen minutes. All centrifugation steps were carried out a 4° C. […]"}, "R2N40": {"system": "R2N40", "test": "PPO enzyme assay, bacterial extract", "protocol": "(§2) This assay used recombinant HemY PPO proteins with plant plastid extract and PPO substrate to identify protoporphyrinogen oxidases that had activity in the presence of a PPO herbicide.\n(§3) Recombinant PPO enzymes were expressed in E. coli HemG knockout cell line and extracted for the enzyme assay. Bacterial cells from an overnight culture were used to inoculate 20 ml of fresh media. These cultures were allowed to grow for approximately 48 hrs at 20° C. to a dense culture. Bacterial cells were collected by centrifugation and the cell pellets stored at −80° C. until enzyme assays were performed. Frozen bacterial pellets were resuspended in extraction buffer (50 mM Tris-HCl, pH 7.6, 1 mM EDTA & 1 mM MgCl2) and sonicated (Sonics VibraCell™) for 30 seconds in an ice bath with a one-minute rest period between cycles. For E. coli transformed with a construct encoding E. coli HemG (SEQ ID NO: 76) the broken cells were centrifuged at 200 g for 2 minutes at 4° C. and the supernatant solution was used for PPO enzyme assays after dilution with extraction buffer. […]\n(§4) A PPO enzyme assay was conducted to measure PPO activity using the plant plastid extract and bacterial extract preparations with the PPO substrate. PPO activity was measured generally as described by Grossmann (2010)."}, "E. coli HemG": {"target": "E. coli HemG (Escherichia coli, UniProt P0ACB4)", "sequence (P0ACB4 whole entry)": "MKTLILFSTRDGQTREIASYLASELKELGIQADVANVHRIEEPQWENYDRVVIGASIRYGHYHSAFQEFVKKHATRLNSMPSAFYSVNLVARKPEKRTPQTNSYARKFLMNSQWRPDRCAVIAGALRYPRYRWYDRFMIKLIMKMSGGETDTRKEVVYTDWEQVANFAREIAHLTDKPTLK", "test": "PPO enzyme assay, bacterial extract", "protocol": "as §2, §3, §4"}, "soybean PPO": {"target": "soybean PPO", "test": "PPO enzyme assay, plant plastid extract", "type": "biochemical, Glycine max", "details": "3 μM protogen, 30° C., read-out: S-3100 IC50", "description": "as §1"}, "R2N30": {"system": "R2N30", "test": "PPO enzyme assay, bacterial extract", "protocol": "as §2, §3, §4"}, "[1]": {"details": "read-out: S-3100 IC50, bacterial extract, 3 μM protogen, 37° C."}}, "data": [{"compound": "CCOC(=O)COc1ncccc1Oc1cc(-n2c(=O)cc(C(F)(F)F)n(C)c2=O)c(F)cc1Cl", "note": "[S-3100]", "values": [{"measurement": "IC50", "setting": "corn PPO", "value": 3, "unit": "nM"}, {"measurement": "less sensitive to the herbicide than the plant PPO enzymes", "setting": "R2N40; R2N40 versus plant PPO enzymes", "value": 10, "unit": "fold"}, {"measurement": "IC50", "setting": "R2N40; [1]", "value": 40, "unit": "nM"}, {"measurement": "IC50", "setting": "E. coli HemG", "value": "> 100000", "unit": "nM"}, {"measurement": "IC50", "setting": "soybean PPO", "value": 4, "unit": "nM"}, {"measurement": "less sensitive to the herbicide than the plant PPO enzymes", "setting": "R2N30; R2N30 versus plant PPO enzymes", "value": 10, "unit": "fold"}, {"measurement": "IC50", "setting": "R2N30; [1]", "value": 20, "unit": "nM"}]}]}
